In brackets after ≈: the same amount, converted by molar mass. Activity calls are given as the source filed them. The rule behind the calls is not given here.
Key:
Candida albicans = assay: Antibacterial activity against Candida albicans ATCC10231 incubated for 18 to 20 hrs by double dilution method; assay type: functional; conditions: time 18-20 hrs
Staphylococcus aureus [1] = assay: Antibacterial activity against methicillin-resistant Staphylococcus aureus ATCC2858 incubated for 18 to 20 hrs by double dilution method; assay type: functional; conditions: time 18-20 hrs
Staphylococcus aureus [2] = assay: Antibacterial activity against Staphylococcus aureus ATCC6538 incubated for 18 to 20 hrs by double dilution method; assay type: functional; conditions: time 18-20 hrs
Escherichia coli = assay: Antibacterial activity against Escherichia coli incubated for 18 to 20 hrs by double dilution method; assay type: functional; conditions: time 18-20 hrs
Pseudomonas aeruginosa = assay: Antibacterial activity against Pseudomonas aeruginosa incubated for 18 to 20 hrs by double dilution method; assay type: functional; conditions: time 18-20 hrs
Staphylococcus aureus [3] = assay: Antibacterial activity against methicillin-resistant Staphylococcus aureus clinical isolate ATCC0101 incubated for 18 to 20 hrs by double dilution method; assay type: functional; conditions: time 18-20 hrs
Staphylococcus aureus [4] = assay: Antibacterial activity against methicillin-resistant Staphylococcus aureus ATCC2858 assessed as reduction in bacterial growth at 0.5 to 4 times of MIC measured after 4 to 8 hrs by time kill assay; assay type: functional, organism-based; conditions: time 4-8 hrs
Staphylococcus aureus [5] = assay: Antibiofilm activity against methicillin-resistant Staphylococcus aureus ATCC2858 assessed as biofilm eradication at 0.049 to 100 uM incubated for 24 hrs by crystal violet staining based assay; assay type: functional, organism-based; conditions: dose 0.049-100 µM
Staphylococcus aureus [6] = assay: Antibacterial activity against methicillin-resistant Staphylococcus aureus clinical isolate ATCC05107 incubated for 18 to 20 hrs by double dilution method; assay type: functional; conditions: time 18-20 hrs
HepG2 = assay: Cytotoxicity against human HepG2 cells assessed as cell survival rate at 25 uM incubated for 24 hrs by MTT assay relative to control; assay type: functional
Staphylococcus aureus [7] = assay: Antibiofilm activity against methicillin-resistant Staphylococcus aureus ATCC2858 assessed as minimal biofilm eradication concentration incubated for 24 hrs by crystal violet staining based assay; assay type: functional
Staphylococcus aureus [8] = assay: Antibacterial activity against methicillin-resistant Staphylococcus aureus clinical isolate ATCC10105 incubated for 18 to 20 hrs by double dilution method; assay type: functional; conditions: time 18-20 hrs

Structure (SMILES) | MIC (Candida albicans) [µM] | MIC (Staphylococcus aureus [1]) [µM] | MIC (Staphylococcus aureus [2]) [µM] | MIC (Escherichia coli) [µM] | MIC (Pseudomonas aeruginosa) [µM] | MIC (Staphylococcus aureus [3]) [µM] | Activity (Staphylococcus aureus [4]) | Activity (Staphylococcus aureus [5]) | MIC (Staphylococcus aureus [6]) [µM] | Activity (HepG2) [%] | MBEC (Staphylococcus aureus [7]) [µM] | MIC (Staphylococcus aureus [8]) [µM]
O=C(Nc1ccc(Sc2nc3ccccc3s2)c(Cl)c1)Nc1ccc(Cl)cc1Cl | > 200 | 0.78 (≈ 0.375 µg/mL) | 0.78 (≈ 0.375 µg/mL) | > 200 | > 200 | – | – | – | – | – | – | –
O=C(Nc1ccccc1C(F)(F)F)N1CCC(Sc2nc3ccccc3s2)CC1 | > 200 | 3.12 (≈ 1.37 µg/mL) | 3.12 (≈ 1.37 µg/mL) | > 200 | > 200 | – | – | – | – | – | – | –
O=C(Nc1ccc(Sc2nc3ccccc3s2)c(Cl)c1)N1CCCC1 | > 200 | > 200 | > 200 | > 200 | > 200 | – | – | – | – | – | – | –
CO[C@@]1(NC(=O)Cc2cccs2)C(=O)N2C(C(=O)O)=C(COC(N)=O)CS[C@@H]21 [CEFOXITIN] | – | 100 (≈ 42.7 µg/mL) | 25 (≈ 10.7 µg/mL) | 50 (≈ 21.4 µg/mL) | > 200 | – | – | – | – | – | – | –
O=C(Nc1ccc(Sc2nc3ccccc3s2)cc1)Nc1ccc(C(F)(F)F)cc1 | > 200 | 0.39 (≈ 0.174 µg/mL) | 0.39 (≈ 0.174 µg/mL) | > 200 | > 200 | 0.78 (≈ 0.347 µg/mL) | Active | Active | 0.78 (≈ 0.347 µg/mL) | >75 | 5 | 0.39 (≈ 0.174 µg/mL)
CN1CCN(C(=O)Nc2ccc(Sc3nc4ccccc4s3)c(Cl)c2)CC1 | 200 (≈ 83.8 µg/mL) | 100 (≈ 41.9 µg/mL) | 100 (≈ 41.9 µg/mL) | 200 (≈ 83.8 µg/mL) | 200 (≈ 83.8 µg/mL) | – | – | – | – | – | – | –
CC1COc2c(N3CCN(C)CC3)c(F)cc3c(=O)c(C(=O)O)cn1c23 (stereo unspecified) [OFLOXACIN] | – | 1.56 (≈ 0.564 µg/mL) | 0.78 (≈ 0.282 µg/mL) | 0.39 (≈ 0.141 µg/mL) | 1.56 (≈ 0.564 µg/mL) | – | – | – | – | – | 3 | –
CN[C@H](CC(C)C)C(=O)N[C@H]1C(=O)N[C@@H](CC(N)=O)C(=O)N[C@H]2C(=O)N[C@H]3C(=O)N[C@H](C(=O)N[C@H](C(=O)O)c4cc(O)cc(O)c4-c4cc3ccc4O)[C@H](O)c3ccc(c(Cl)c3)Oc3cc2cc(c3O[C@@H]2O[C@H](CO)[C@@H](O)[C@H](O)[C@H]2O[C@H]2C[C@](C)(N)[C@H](O)[C@H](C)O2)Oc2ccc(cc2Cl)[C@H]1O [VANCOMYCIN] | – | 0.78 (≈ 1.13 µg/mL) | – | – | – | 0.78 (≈ 1.13 µg/mL) | – | – | 1.56 (≈ 2.26 µg/mL) | – | 7 | 1.56 (≈ 2.26 µg/mL)
O=C(Nc1ccc(Sc2nc3ccccc3s2)c(Cl)c1)N1CCOCC1 | > 200 | > 200 | > 200 | > 200 | > 200 | – | – | – | – | – | – | –
O=C(Nc1ccc(Sc2nc3ccccc3s2)c(Cl)c1)N1CCSC1 | > 200 | > 200 | > 200 | > 200 | > 200 | – | – | – | – | – | – | –
